Data as given in US20260274866A1, “PYRIDO[4,3-D]PYRIMIDINE DERIVATIVES AS MUTANT KRAS G12C INHIBITORS FOR THE TREATMENT OF CANCER” (Frontier Medicines Corporation, priority 2023, published 2026).
pIC50: −log10 of the molar value.

Target: T1, KRAS G12C (GMPPNP-loaded) and cRAF (Ras-binding domain) interaction (Homo sapiens, UniProt P01116, C118S/C51S/C80L/G12C)
T1 construct: truncated version comprising amino acids 1-169
Assay: AlphaScreen inhibition of KRAS G12C and cRAF binding
Format: biochemical
Conditions: KRAS G12C preloaded with GTP analogue GMPPNP, 2 hours preincubation
Procedure: The AlphaScreen technology was used to determine IC50s for compound inhibition of KRAS G12C (present as the Cys-light (C51S, C80L and C118S), truncated version comprising amino acids 1-169) and cRAF interaction. Compounds were diluted in 100% DMSO and each compound concentration was spotted at 200 nl/well onto low volume, white 384 well plates. The KRAS G12C contained a biotin-AviTag and the cRaf, as Ras-binding domain (amino acids 50-131, RBD), was GST-tagged. KRAS G12C was preloaded with the GTP analogue Guanosine 5′-[β,γ-imido]triphosphate (GMPPNP). The KRAS G12C was diluted in 25 mM Hepes, pH 7.4, 150 mM NaCl, 5 mM MgCl2, 0.01% TritonX-100 and 10 μM GMPPNP and added at 10 ul/well to compound-spotted plates resulting in a DMSO concentration of 2%. Plates were incubated for 2 hours. A mixture of RBD and the AlphaScreen streptavidin donor and glutathione acceptor beads diluted in 25 mM Hepes, pH 7.4, 150 mM NaCl, 5 mM MgCl2, 0.01% TritonX-100 and 2% DMSO was then added at 10 ul/well and incubated for 60-90 minutes before the samples were read for emission at 570 nm after excitation of the donor beads at 680 nm. All incubations were performed at room temperature. The final top compound concentration was 50 μM with 1:3 titrations for 10-point dose response curves. Final assay conditions were 0.5 nM KRAS G12C, 0.75 nM RBD and 5 ug/ml each of AlphaScreen donor and acceptor beads. IC50s were determined using nonlinear regression fit of [inhibitor] vs. response (4 parameters).
A counter assay was also set up to rule out inhibitors of the AlphaScreen technology itself. Compound plates were incubated for 2 hours as above with buffer only. The AlphaScreen beads were added as above except biotin-AviTag-GST was substituted for the RBD. Samples were read and analyzed as above.

T1 sequence (P01116 1-169 isoform P01116-2 G12C/C51S/C80L/C118S): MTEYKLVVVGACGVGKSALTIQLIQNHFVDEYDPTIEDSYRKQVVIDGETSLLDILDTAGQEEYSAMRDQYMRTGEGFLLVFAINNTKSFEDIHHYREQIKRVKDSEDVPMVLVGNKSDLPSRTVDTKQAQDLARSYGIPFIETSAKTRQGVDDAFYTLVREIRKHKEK

| pIC50 | Structure (SMILES) |
| --- | --- |
| 6.30 to 7.00 | C[C@H](/C=C/C(=O)N1CC[C@@H](N(C)c2nc(OC[C@@]34CCCN3C[C@H](F)C4)nc3c(F)c(-c4cccc5cccc(Cl)c45)ncc23)C1)N(C)C [Compound 1] |
| 7.00 to 8.00 | C[C@@H](/C=C/C(=O)N1CCN(c2nc(OCC34CCCN3CCC4)nc3c2CCN(c2cccc4cccc(Cl)c24)C3)C[C@@H]1CC#N)N(C)C [Compound 5] |
| 6.30 to 7.00 | C[C@@H](/C=C/C(=O)N1CCN(c2nc(OC[C@@]34CCCN3C[C@H](F)C4)nc3c(F)c(-c4cccc5cccc(Cl)c45)ncc23)C[C@@H]1CC#N)N1CC2CC(C1)O2 [Compound 37] |
| ≤ 6.30 | C[C@H](/C=C/C(=O)N1CCN(c2nc(OC[C@@]34CCCN3C[C@H](F)C4)nc3c(F)c(-c4cccc5cccc(Cl)c45)ncc23)C[C@@H]1CC#N)N1CC[C@H](F)C1 [Compound 38] |
| ≤ 6.30 | C[C@@H](/C=C/C(=O)N1CCN(c2nc(OC[C@@]34CCCN3C[C@H](F)C4)nc3c(F)c(-c4cccc(Cl)c4C(F)(F)F)ncc23)C[C@@H]1CC#N)N(C)C [Compound 47, 2-((S)-4-(7-(3-chloro-2-(trifluoromethyl)phenyl)-8-fluoro-2-(((2R,7aS)-2-fluorotetrahydro-1H-pyrrolizin-7a(5H)-yl)methoxy)pyrido[4,3-d]pyrimidin-4-yl)-1-((S,E)-4-(dimethylamino)pent-2-enoyl)piperazin-2-yl)acetonitrile] |
| 6.30 to 7.00 | C[C@H](/C=C/C(=O)N1CC[C@@H](N(C)c2nc(OC[C@@]34CCCN3C[C@H](F)C4)nc3c(F)c(-c4cccc5ccc(F)c(Cl)c45)ncc23)C1)N(C)C [Compound 6] |

More lines, now with the values behind:

| Structure (SMILES) | pIC50 |
| --- | --- |
| C[C@@H](/C=C/C(=O)N1CCN(c2nc(OC[C@@]34CCCN3C[C@H](F)C4)nc3c(F)c(-c4cccc5cccc(Cl)c45)ncc23)C[C@@H]1CC#N)N1CCOCC1 [Compound 24] | 7.00 to 8.00 |
| C[C@H](/C=C/C(=O)N1CCN(c2nc(OC[C@@]34CCCN3C[C@H](F)C4)nc3c(F)c(-c4cccc5cccc(Cl)c45)ncc23)C[C@@H]1CC#N)N1CC2CCC(C1)O2 [Compound 42] | 6.30 to 7.00 |
| CO[C@H]1CCN([C@@H](C)/C=C/C(=O)N2CCN(c3nc(OC[C@@]45CCCN4C[C@H](F)C5)nc4c(F)c(-c5cccc6ccc(F)c(Cl)c56)ncc34)C[C@@H]2CC#N)C1 [Compound 19, 2-((S)-4-(7-(8-chloro-7-fluoronaphthalen-1-yl)-8-fluoro-2-(((2R,7aS)-2-fluorotetrahydro-1H-pyrrolizin-7a(5H)-yl)methoxy)pyrido[4,3-d]pyrimidin-4-yl)-1-((S,E)-4-((S)-3-methoxypyrrolidin-1-yl)pent-2-enoyl)piperazin-2-yl)acetonitrile] | 7.00 to 8.00 |
| CC(/C=C/C(=O)N1CCN(c2nc(OC[C@@]34CCCN3C[C@H](F)C4)nc3c(F)c(-c4cccc5cccc(Cl)c45)ncc23)C[C@@H]1CC#N)N1C2COCC1C2 (some centres unmarked) [Compound 27] | 7.00 to 8.00 |
| C#Cc1c(F)ccc2cccc(-c3ncc4c(N(C)[C@@H]5CCN(C(=O)/C=C/C(C)N(C)C)C5)nc(OC[C@@]56CCCN5C[C@H](F)C6)nc4c3F)c12 (stereo partly drawn) [Compound 32, (E)-4-(dimethylamino)-1-((R)-3-((7-(8-ethynyl-7-fluoronaphthalen-1-yl)-8-fluoro-2-(((2R,7aS)-2-fluorotetrahydro-1H-pyrrolizin-7a(5H)-yl)methoxy)pyrido[4,3-d]pyrimidin-4-yl)(methyl)amino)pyrrolidin-1-yl)pent-2-en-1-one] | > 8.00 |
| C[C@H](/C=C/C(=O)N1CC[C@@H](N(C)c2nc(OC[C@@]34CCCN3C[C@H](F)C4)nc3c(F)c(-c4cccc5ccc(F)c(F)c45)ncc23)C1)N(C)C [Compound 7, (R,E)-1-((R)-3-((7-(7,8-difluoronaphthalen-1-yl)-8-fluoro-2-(((2R,7aS)-2-fluorotetrahydro-1H-pyrrolizin-7a(5H)-yl)methoxy)pyrido[4,3-d]pyrimidin-4-yl)(methyl)amino)pyrrolidin-1-yl)-4-(dimethylamino)pent-2-en-1-one] | 6.30 to 7.00 |
| CC(/C=C/C(=O)N1CC[C@@H](N(C)c2nc(OC[C@@]34CCCN3C[C@H](F)C4)nc3c(F)c(-c4cccc(Cl)c4C4CC4)ncc23)C1)N(C)C (some centres unmarked) [Compound 35] | 6.30 to 7.00 |
| C[C@@H](/C=C/C(=O)N1CC[C@@H](N(C)c2nc(OC[C@@]34CCCN3C[C@H](F)C4)nc3c(F)c(-c4cccc5cccc(Cl)c45)ncc23)C1)N(C)C [Compound 2] | > 8.00 |
| C[C@@H](/C=C/C(=O)N1C[C@H](F)[C@@H](N(C)c2nc(OC[C@@]34CCCN3C[C@H](F)C4)nc3c(F)c(-c4cccc5cccc(Cl)c45)ncc23)C1)N(C)C [Compound 8] | 7.00 to 8.00 |
| C[C@H](/C=C/C(=O)N1CCN(c2nc(OC[C@@]34CCCN3C[C@H](F)C4)nc3c(F)c(-c4cccc5cccc(Cl)c45)ncc23)C[C@@H]1CC#N)N1[C@@H]2CC[C@H]1COC2 [Compound 30, 2-((S)-1-((R,E)-4-((1R,5S)-3-oxa-8-azabicyclo[3.2.1]octan-8-yl)pent-2-enoyl)-4-(7-(8-chloronaphthalen-1-yl)-8-fluoro-2-(((2R,7aS)-2-fluorotetrahydro-1H-pyrrolizin-7a(5H)-yl)methoxy)pyrido[4,3-d]pyrimidin-4-yl)piperazin-2-yl)acetonitrile] | 7.00 to 8.00 |
| CC(/C=C/C(=O)N1CCN(c2nc(OC[C@@]34CCCN3C[C@H](F)C4)nc3c(F)c(-c4cccc5cccc(Cl)c45)ncc23)C[C@@H]1CC#N)N1C[C@@H]2C[C@H]1CO2 (some centres unmarked) [Compound 15] | 7.00 to 8.00 |
